Type in all cases: cell-based, human
The test system of test [1] is mononuclear cells (MNC). The experiment in a line: Ex vivo expansion of stem and progenitor cells in mixed cells culture: cell enumeration and FACS. The settings on record: for cumulative number of CD34+ cells: TEPA first three weeks only, FIGS. 16a-b; for cumulative number of CD34+ cells per culture bag: control 2.56×10^6; for Portion of CD34+ cells (%): control 0.2; for Number of CD34+ cells (×10^4): control 256.0. Here is the method:
Sample collection and processing: Samples were obtained from umbilical cord blood after a normal full-term delivery and were frozen within 24 hours pospartum. The blood cells were thawed in Dextran buffer and incubated for […] in MEM (Biological Industries, Israel) supplemented with 10% fetal calf serum (FCS; Biological Industries). The cells were then layered on Ficoll-Hypaque (density 1.077 gram/ml; Sigma) and centrifuged at 400 g for 30 minutes at room temperature. The mononuclear cells in the interface layer were then collected, washed three times in phosphate-buffered saline (PBS; Biological Industries), and re-suspended in PBS containing 0.5% human serum albumin (HSA). The cells were then split into two fractions, the first being the mononuclear cells (MNC) and the second fraction was used for purifying CD34^+ cells by immunomagnetic separation using the “MiniMACS CD34^+ progenitor cell isolation kit” (Miltenyi Biotec, Auburn, Calif.) according to the manufacturer's recommendations. The purity of the CD34^+ cells obtained ranged between 95% and 98%, based on Flow Cytometry evaluation (see below). Ex vivo expansion of progenitor cells: The non-purified mononuclear cells (MNC), obtained as described hereinabove, were seeded in Culture Bags (American Fluoroseal Corp.), with alpha minimal essential medium supplemented with 10% fetal bovine serum (FBS, Biological Industries), at a concentration of about 10^6 cells/ml. The purified CD34^+ cells were similarly seeded in the Culture Bags, at a concentration of […]. The media were supplemented with TEPA chelator and/or with the following human recombinant cytokines (all obtained from Perpo Tech, Inc., Rocky Hill, N.J.): Thrombopoietin (TPO), 50 ng/ml; interleukin 6 (IL-6), 50 ng/ml; FLT-3 ligand, 50 ng/ml and a stem cell factor (SCF), 50 ng/ml; occasionally SCF was replaced by IL-3, 20 ng/ml. For non-hemopoietic differentiation, FGF, EGF, NGF, VEGF, LIF or Hepatocyte growth factor, were used alone or in various combinations. All cultures were incubated at 37° C. in an atmosphere of 5% CO2 in air with extra humidity. At weekly intervals, the cell cultures were semi-depopulated and supplemented with fresh medium containing cytokines. Following different incubation periods, cells were harvested, stained with trypan blue and enumerated. Determining the density of stem and progenitor subset populations following expansion was carried out as described in the experimental procedures section of Example 3 above. Non-purified mononuclear cells (MNC) were seeded in culture bags and were provided with nutrients and cytokines as described above. The MNC cultures were either treated or untreated (untreated controls) with TEPA-chelator. The treated MNC cultures were supplemented with TEPA for only the first three weeks and from week three onward were topped with chelator-free media. The pre-purified CD34^+ cultures were not supplemented with TEPA and served as positive controls. The cultures were analyzed weekly during a 12-week period. Non-purified (mixed cells) mononuclear cells (MNC) were seeded in culture bags and were provided with nutrients and cytokines as described in Example 4 above. The mixed cell cultures were either untreated (control) or treated with Cu-TEPA chelate. The treated MNC cultures were supplemented with Cu-TEPA chelate for only the first three weeks and from week three onward were topped with chelator-free media. All cultures were analyzed […].

The subject of test [2] is CD34+ cells. The experiment in a line: Cellular copper content by atomic absorption. The settings on record: 2 days incubation, relative to untreated control. Here is the method: Cell cultures: Cultures of enriched CD34^+ cell fraction were generated, maintained and analyzed as described in Example 1 above.
Copper Determination: Cells were harvested by centrifugation at 1000 g for 5 minutes. The cell pellet was washed three times in PBS. Aliquots containing 2×10^6 cells were then transferred into a metal-free Eppendorf tube and pelleted by centrifugation at 1000 g. The cell pellet was re-suspended in 0.03 M ultra-pure nitric acid to give a concentration of 1×10^7 cells/ml. The cells were sonicated and then analyzed in duplicate by a Perkin Elmer graphite furnace atomic absorption spectrophotometer at a wavelength of 324.7 nm and a 0.7 slit width. The following times and temperatures were used: drying at 95° C. for 45 seconds with a 15-s ramp; charring at […] for 30 seconds with a 10-s ramp, and atomization at […] for 10 seconds. The peak area was integrated for 10 seconds. The samples were analyzed against copper standard solution prepared from a commercial stock solution that was diluted with 0.03 M ultra pure nitric acid.
Effect of TEPA-Cu chelate and TEPA chelator on the cellular copper content: Purified CD34^+ cell were seeded in liquid culture in the presence of early cytokines and treated either with TEPA-Cu chelate or with TEPA chelator. After 2 days incubation, cells were separated from culture media and analyzed for cellular copper content. The results are presented in Table 1 below and indicate that cultured cells treated with TEPA-Cu chelate, at different concentrations, developed progressively higher cellular copper content. In contrast, cultured cells treated with TEPA chelator, at different concentrations, developed progressively lower cellular copper contents.

The subject of test [3] is CD34+ cells. Description: Self-renewal potential: colony-forming cells (CFU) from CD34+ cultures. The settings on record: for number of colony-forming cells of CD34+ vs untreated control: 5 and 7 weeks incubation, different concentrations, TPO, FLT-3, IL-6, IL-3, FIGS. 15a-c; for CFUc: eight-week cultures, FIG. 2d, control 0; for numbers of CD34+ Lin− colony-forming cells, fold higher than untreated control: four weeks, with IL-3, FIG. 6d. The text has this: Ex vivo expansion of progenitor cells: Enriched CD34^+ cell fractions were cultures in 24-well Costar Cell Culture Clusters (Corning Inc., Corning, N.Y.) or in Culture Bags (American Fluoroseal Corp.) with alpha minimal essential medium supplemented with 10% fetal bovine serum (FBS, Biological Industries), at about 1-3×10^4 cells/ml medium. The media were further supplemented with the following human recombinant cytokines (all obtained from Perpo Tech, Inc., Rocky Hill, N.J.): Thrombopoietin (TPO), 50 ng/ml; interleukin 6 (IL-6), 50 ng/ml; FLT-3 ligand, 50 ng/ml; and IL-3, 20 ng/ml. The cultures were incubated at 37° C. in an atmosphere of 5% CO2 in air with extra humidity. At weekly intervals cell cultures were semi-depopulated and supplemented with fresh medium containing the cytokines. Following different incubation periods, the cells were harvested, stained with trypan blue and enumerated. The total cell counts, numbers of CD34^+ cells and subsets thereof, and the number of colony-forming cells (CFU) are presented herein as cumulative numbers, with the assumption that the cultures had not been passaged, namely, the numbers of cells per ml were multiplied by the number of passages performed. Self-renewal potential evaluations: The self-renewal potential of stem cells was determined in vitro by long-term colony formation. Cells were washed and seeded in a semi-solid methylcellulose medium supplemented with 2 IU/ml erythropoietin ([…] Int., Switzerland), stem cell factor and IL-3, both at 20 ng/ml (Perpo Tech), and G-CSF and GM-CSF, both at 10 ng/ml (Perpo Tech). The resulting colonies were scored after two weeks of incubation at 37° C. in a humidified atmosphere of 5% CO2 in air. Colonies were classified as blast, mixed, erythroid, myeloid, and megakaryocytic, according to their cellular composition.

The mark [4] stands for this setting: 50 μM, MNC culture, eight weeks after seeding.
Setting [5] is: 100 μM, MNC culture, eight weeks after seeding.

Consider `NCCNCCNCCNCCN` [TEPA chelator, tetraethylenepentamine], for which the “cumulative number of CD34+CD38− cells” value is “non-detectable” in test [1] (MNC culture, after 2 weeks, FIG. 17) and 2.5×10^7 cells/ml in test [1] (MNC culture, after 12 weeks, FIG. 17). In addition, the “cumulative number of CD34+ cells” value in test [1] (MNC culture, after 2 weeks) was “non-detectable”; in test [1] (MNC culture, after 12 weeks) it was “over 8×10^7 cells/ml”. For the same molecule, in test [1] (TEPA-treated MNC cultures, 12-week period), the “stem and progenitor cells densities vs pre-purified CD34+ cells cultures (not treated with TEPA)” value was “either equalized or surpassed”. Besides, the “Relative cellular-copper content (%)” value in test [2] (5 μM) was 80%; in test [2] (10 μM) it was 55%; in test [2] (20 μM), 42%. Also, the “number of colony-forming cells of CD34+ vs untreated control” value in test [3] is listed as “substantially increased”.
Take `NCCNCCNCCNCCN.[Cl-].[Cl-].[Cu+2]` [TEPA-Cu chelate, tetraethylenepentamine-copper chelate]: the “cumulative number of CD34+ cells per culture bag” value in test [1] (50 μM, MNC culture, 8 weeks) is reported as 12.37×10^6; in test [1] (100 μM, MNC culture, 8 weeks) it was 32.85×10^6. The “Portion of CD34+ cells (%)” value amounted to 1.4% in test [1] (setting [4]) and 1.2% in test [1] (setting [5]). The entries for the “Number of CD34+ cells (×10^4)” value in test [1] (setting [4]) and in test [1] (setting [5]) were 1237.3 ×10^4 and 3285.3 ×10^4, respectively. Moreover, in test [1] (100 μM, MNC culture, 8 weeks, control 2.1×10^5), the “cumulative number of CD34+CD38− cells” value was 6.1×10^5. Further, in test [1] (100 μM, MNC culture, eight weeks after seeding, control 21), the “Nunber of CD34/38− cells (×10^4)” value is listed as 61 ×10^4. In addition, the “Relative cellular-copper content (%)” value came out at 178% in test [2] (10 μM), 235% in test [2] (30 μM) and 290% in test [2] (60 μM). In addition, the CFUc in test [3] (5 μM) was 0 CFUc; in test [3] (10 μM), 1 CFUc; in test [3] (15 μM) it was 30 CFUc; in test [3] (20 μM), 120 CFUc; in test [3] (40 μM) it was 400 CFUc. Moreover, the “numbers of CD34+ Lin− colony-forming cells, fold higher than untreated control” value in test [3] (20 μM) is 7 fold; in test [3] (40 μM), 9 fold; in test [3] (50 μM), 7.5 fold. The “effectiveness of higher vs lower concentrations on colony-forming cells” value in test [3] (100 μM vs 10 and 50 μM, 8 week-old cultures, FIG. 1) is “substantially more effective”. In addition, the “number of colony-forming cells of CD34+ vs untreated control” value in test [3] is “substantially increased”. In addition, the “colony-forming cells of CD34+ vs cultures treated only with cytokines” value in test [3] (8 week-old cultures, FIG. 1) is “substantially more colony-forming cells”. Further, the “numbers of CFUc vs non-treated control (cytokines only)” value in test [3] (longer incubation (5, 6, 8 weeks), chelate supplemented first three weeks, FIGS. 2b-d) was “substantially higher”.

These data come from patent US7655225B2, “Methods of expanding stem and progenitor cells and expanded cell populations obtained thereby” (Gamida Cell, Ltd., priority 2002, dated 2010).
